Patent US8629143B2, “Potassium channel modulators” (AbbVie Inc., priority 2009, dated 2014)

Molecular target: T1, KCNQ 2/3 channels (HEK293 cells stably expressing human KCNQ2 and KCNQ3 subunits) (Homo sapiens, UniProt O43525+O43526)
T1 construct: expressed in transfected cells; host or cells: HEK293
Experiment: KCNQ2/3 channel activation, thallium flux FLIPR assay with BTC-AM dye
Assay type: cell-based
Conditions: for Emax: HEK293, maximum response relative to the response produced by 10 μM retigabine (set at 100%), read-out: Max. %; for EC50: HEK293 cells expressing human KCNQ2 and KCNQ3, thallium flux, FLIPR
Experimental: The following example describes the assay that can be used to identify compounds that activate KCNQ 2/3 channels.
HEK293 cells stably expressing human KCNQ2 and KCNQ3 subunits were seeded in 96-well, black-walled, clear-bottomed, poly-D-lysine coated plates (BD Biosciences, Bedford, Mass.) at a density of 1×10^5 cells per well 24 hours before the assay. On the assay day, BTC-AM dye (Invitrogen, Carlsbad, Calif.) was loaded into the cells by replacing the cell culture medium with 55 μL/well of 3 μg/mL dye in DPBS. Dye loading was allowed to proceed for 2 hours at room temperature and then cells were washed twice with 50 μL/well of assay buffer (in mM: 10 HEPES pH 7.3, 5 glucose, 140 Na-gluconate, 2.5 K-gluconate, 3.6 Ca-gluconate, 2 MgSO4, 0.1 Ouabain) to remove unloaded dye. Cells were incubated in 50 μL of assay buffer before loading onto a FLIPR system (Molecular Devices, Sunnyvale, Calif.). Various concentrations of compounds to be assayed were added to the cells in 50 μL of assay buffer and incubated for 4 minutes. The fluorescence signal was initiated by adding 100 μL of assay buffer containing 6 mM TlNO3 and 10 mM K2SO4. Fluors were excited using the 488-nm line of an argon laser and emission was filtered using a 540±30 nm bandpass filter. Fluorescent signals were recorded for 3 minutes. Sums of the responses over basal responses were plotted versus concentrations of test compounds to obtain an EC50 value. The maximum response for each test compound was determined relative to the response produced by 10 μM retigabine. The maximum response of retigabine at 10 μM was set at 100%.

Row | Structure (SMILES) | Emax | EC50
1 | O=C(CC1CC2CCC1C2)Nn1nc(C(F)(F)F)c2ccccc2c1=O (racemic) [Example 58, (±)-2-(exo-bicyclo[2.2.1]heptan-2-yl)-N-[1-oxo-4-(trifluoromethyl)phthalazin-2(1H)-yl]acetamide] | 137% | 100 to 500 nM
2 | O=C(CC1CC2CCC1C2)Nn1nc(-c2ccc(C(=O)O)cc2)c2ccccc2c1=O (racemic) [Example 78, (±)-4-(3-{[(exo-bicyclo[2.2.1]heptan-2-yl)acetyl]amino}-4-oxo-3,4-dihydrophthalazin-1-yl)benzoic acid] | 140% | 1000 to 10000 nM
3 | CN(C)C(=O)c1ccc(-c2nn(NC(=O)CC3CC4CCC3C4)c(=O)c3ccccc23)cc1 (racemic) [Example 81, (±)-4-(3-{[exo-bicyclo[2.2.1]hept-2-ylacetyl]amino}-4-oxo-3,4-dihydrophthalazin-1-yl)-N,N-dimethylbenzamide] | 50% | > 10000 nM
4 | O=C(C[C@H]1C[C@@H]2CC[C@H]1C2)Nn1nc(-c2ccc(Br)cc2)c2ccccc2c1=O (racemic) [Example 84, (±)-2-(exo-bicyclo[2.2.1]heptan-2-yl)-N-[4-(4-bromophenyl)-1-oxophthalazin-2(1H)-yl]acetamide] | 134% | < 100 nM
5 | O=C(CC1CC2CCC1C2)Nn1nc(-c2ccc(Cl)cc2)c2ccccc2c1=O (racemic) [Example 113, (±)-2-(exo-bicyclo[2.2.1]hept-2-yl)-N-[4-(4-chlorophenyl)-1-oxophthalazin-2(1H)-yl]acetamide] | 154% | < 100 nM
6 | O=C(CC1CC2CCC1C2)Nn1nc(-c2cccc(Cl)c2)c2ccccc2c1=O (racemic) [Example 125, (±)-2-(exo-bicyclo[2.2.1]hept-2-yl)-N-[4-(3-chlorophenyl)-1-oxophthalazin-2(1H)-yl]acetamide] | 150% | < 100 nM
7 | O=C(CC1CC2CCC1C2)Nn1nc(-c2ccc(F)cc2)c2ccccc2c1=O (racemic) [Example 131, (±)-2-(exo-bicyclo[2.2.1]hept-2-yl)-N-[4-(4-fluorophenyl)-1-oxophthalazin-2(1H)-yl]acetamide] | 150% | < 100 nM
8 | O=C(C[C@H]1C[C@@H]2CC[C@H]1C2)Nn1nc(-c2ccc(F)cc2F)c2ccccc2c1=O (racemic) [Example 134, (±)-2-(exo-bicyclo[2.2.1]hept-2-yl)-N-[4-(2,4-difluorophenyl)-1-oxophthalazin-2(1H)-yl]acetamide] | 192% | < 100 nM

Second part, the molecule after the results:

Row | Emax | EC50 | Structure (SMILES)
9 | 160% | < 100 nM | CC(C)(C)c1nn(NC(=O)CC2CC3CCC2C3)c(=O)c2ccccc12 (racemic) [Example 63, (±)-2-(exo-bicyclo[2.2.1]heptan-2-yl)-N-(4-tert-butyl-1-oxophthalazin-2(1H)-yl)acetamide]
10 | 164% | < 100 nM | O=C(C[C@H]1C[C@@H]2CC[C@H]1C2)Nn1nc(C2CCC2)c2ccccc2c1=O (racemic) [Example 68, (±)-2-(exo-bicyclo[2.2.1]heptan-2-yl)-N-(4-cyclobutyl-1-oxophthalazin-2(1H)-yl)acetamide]
11 | 162% | < 100 nM | O=C(CC1CC2CCC1C2)Nn1nc(C2CCCC2)c2ccccc2c1=O (racemic) [Example 71, (±)-2-(exo-bicyclo[2.2.1]heptan-2-yl)-N-(4-cyclopentyl-1-oxophthalazin-2(1H)-yl)acetamide]
12 | 165% | < 100 nM | O=C(CC1CC2CCC1C2)Nn1nc(C2CCCCC2)c2ccccc2c1=O (racemic) [Example 74, (±)-2-(exo-bicyclo[2.2.1]heptan-2-yl)-N-(4-cyclohexyl-1-oxophthalazin-2(1H)-yl)acetamide]
13 | 144% | < 100 nM | COC(=O)c1ccc(-c2nn(NC(=O)C[C@H]3C[C@@H]4CC[C@H]3C4)c(=O)c3ccccc23)cc1 (racemic) [Example 79, (±)-methyl 4-(3-{[exo-bicyclo[2.2.1]hept-2-ylacetyl]amino}-4-oxo-3,4-dihydrophthalazin-1-yl)benzoate]
